Measurements published in ChEMBL document CHEMBL1201862, “PubChem BioAssay data set” (2004).
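Dose response: 5 concentrations. Exposure: 48 h. Format: 96-well plates. Endpoint: linear interpolation; highest concentration if not reached. Abbreviation: GI50, concentration required for 50% inhibition of growth.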 Active and inactive are the calls of the source. Cut-off read from the data, not from the text of the source: active = GI50 up to about 1.1 µM and inactive = higher.

Assays:
Experiment in all cases: growth of human tumour cells (NCI), 48 h
[1] = system: SK-OV-3
[2] = system: A549
[3] = system: OVCAR-3
[4] = system: SF-295
[5] = system: SK-MEL-5
[6] = system: SNB-19
[7] = system: TK-10
[8] = system: U-251
[9] = system: SK-MEL-28
[10] = system: COLO 205
[11] = system: OVCAR-5
[12] = system: UO-31
[13] = system: HL-60
[14] = system: NCI-H460
[15] = system: EKVX
[16] = system: SN12C
[17] = system: LOX IMVI
[18] = system: MCF7
[19] = system: CAKI-1
[20] = system: RXF 393

In the case of `Cc1nc(N(CCO)CCO)c2sc(=S)n(-c3ccccc3)c2n1`, the GI50 [1] was > 100 µM (inactive), the GI50 [2] was > 100 µM (inactive) and the GI50 [3] was > 100 µM (inactive). For the same molecule, the GI50 [4] was > 100 µM (inactive), the GI50 [5] was > 100 µM (inactive) and the GI50 [6] was > 100 µM (inactive). The GI50 [7] was > 100 µM (inactive), the GI50 [8] was > 100 µM (inactive) and the GI50 [9] was > 100 µM (inactive). The GI50 [10] was > 100 µM (inactive), the GI50 [11] was > 100 µM (inactive) and the GI50 [12] was > 100 µM (inactive). For the same molecule, the GI50 [13] was > 100 µM (inactive) and the GI50 [14] was > 100 µM (inactive).
With `COc1ccc(-c2c(-c3ccccc3)c(C)c3ccccn23)cc1` the GI50 [1] was > 100 µM (inactive), the GI50 [15] was 99.5 µM (inactive) and the GI50 [2] was 87.3 µM (inactive). For the same molecule, the GI50 [3] was > 100 µM (inactive), the GI50 [4] was > 100 µM (inactive) and the GI50 [5] was 77.8 µM (inactive). The GI50 [6] was > 100 µM (inactive), the GI50 [16] was > 100 µM (inactive) and the GI50 [7] was > 100 µM (inactive). The GI50 [8] was > 100 µM (inactive), the GI50 [17] was 83.6 µM (inactive) and the GI50 [9] was 79.8 µM (inactive). The GI50 [10] was 80.4 µM (inactive), the GI50 [18] was 57.7 µM (inactive) and the GI50 [11] was > 100 µM (inactive). For the same molecule, the GI50 [12] was > 100 µM (inactive), the GI50 [13] was 48.4 µM (inactive) and the GI50 [14] was 59.2 µM (inactive). The GI50 [19] was > 100 µM (inactive).
With `O=C1CCCCCCCCCCOC(=O)CCCCCCCCCCO1` the GI50 [1] was > 100 µM (inactive), the GI50 [15] was > 100 µM (inactive) and the GI50 [2] was > 100 µM (inactive). The GI50 [3] was > 100 µM (inactive), the GI50 [4] was > 100 µM (inactive) and the GI50 [20] was > 100 µM (inactive). The GI50 [5] was > 100 µM (inactive), the GI50 [6] was > 100 µM (inactive) and the GI50 [16] was > 100 µM (inactive). The GI50 [7] was > 100 µM (inactive), the GI50 [8] was > 100 µM (inactive) and the GI50 [17] was > 100 µM (inactive). For the same molecule, the GI50 [9] was > 100 µM (inactive), the GI50 [10] was > 100 µM (inactive) and the GI50 [11] was > 100 µM (inactive). For the same molecule, the GI50 [12] was > 100 µM (inactive), the GI50 [13] was 21.8 µM (inactive) and the GI50 [14] was > 100 µM (inactive). For the same molecule, the GI50 [19] was > 100 µM (inactive).
In the case of `Cc1ccc(S(=O)(=O)NCCCSCCN)cc1`, the GI50 [1] was > 100 µM (inactive), the GI50 [2] was > 100 µM (inactive) and the GI50 [3] was > 100 µM (inactive). For the same molecule, the GI50 [4] was > 100 µM (inactive), the GI50 [20] was > 100 µM (inactive) and the GI50 [5] was 22 µM (inactive). The GI50 [6] was > 100 µM (inactive), the GI50 [16] was > 100 µM (inactive) and the GI50 [7] was > 100 µM (inactive). The GI50 [8] was > 100 µM (inactive), the GI50 [17] was < 0.01 µM (active) and the GI50 [9] was > 100 µM (inactive). For the same molecule, the GI50 [10] was > 100 µM (inactive), the GI50 [18] was > 100 µM (inactive) and the GI50 [12] was > 100 µM (inactive). The GI50 [13] was > 100 µM (inactive) and the GI50 [14] was > 100 µM (inactive).
For `Cc1nc2c(nc1Cl)nc(Oc1ccc(Cl)cc1)c1ccccc12`, the GI50 [1] was > 100 µM (inactive), the GI50 [15] was > 100 µM (inactive) and the GI50 [2] was 34.6 µM (inactive). The GI50 [3] was > 100 µM (inactive), the GI50 [4] was 37.2 µM (inactive) and the GI50 [5] was 57.5 µM (inactive). The GI50 [6] was 82.8 µM (inactive), the GI50 [16] was 43.6 µM (inactive) and the GI50 [8] was 19.5 µM (inactive). The GI50 [17] was 59.6 µM (inactive), the GI50 [9] was > 100 µM (inactive) and the GI50 [10] was > 100 µM (inactive). The GI50 [11] was > 100 µM (inactive), the GI50 [12] was 27 µM (inactive) and the GI50 [14] was 62.4 µM (inactive). The GI50 [19] was > 100 µM (inactive).
For `CC12CCC3C(CCC4CC(OC(=O)Cc5ccc(N(CCCl)CCCl)cc5)CCC43C)C1CCC(=O)N2` (stereo not given), the GI50 [1] was 18 µM (inactive), the GI50 [15] was 16.4 µM (inactive) and the GI50 [2] was 15.5 µM (inactive). For the same molecule, the GI50 [3] was 18.2 µM (inactive), the GI50 [4] was 16.3 µM (inactive) and the GI50 [20] was 14.5 µM (inactive). The GI50 [5] was 18.2 µM (inactive), the GI50 [6] was 18.3 µM (inactive) and the GI50 [16] was 15.6 µM (inactive). For the same molecule, the GI50 [7] was 20.6 µM (inactive), the GI50 [8] was 15.1 µM (inactive) and the GI50 [9] was 17.1 µM (inactive). For the same molecule, the GI50 [10] was 17.3 µM (inactive), the GI50 [12] was 19.7 µM (inactive) and the GI50 [13] was 4.84 µM (inactive). For the same molecule, the GI50 [14] was 7.26 µM (inactive) and the GI50 [19] was 15.9 µM (inactive).
With `COC(=O)c1ccc(NCc2cc(OC)ccc2OC)cc1` the GI50 [1] was 57 µM (inactive), the GI50 [15] was 80 µM (inactive) and the GI50 [2] was 38.7 µM (inactive). The GI50 [3] was 59.2 µM (inactive), the GI50 [5] was 31.2 µM (inactive) and the GI50 [6] was > 100 µM (inactive). For the same molecule, the GI50 [7] was 24 µM (inactive), the GI50 [8] was 74.3 µM (inactive) and the GI50 [17] was 24.3 µM (inactive). The GI50 [9] was 39.1 µM (inactive), the GI50 [10] was 35.6 µM (inactive) and the GI50 [18] was 26.7 µM (inactive). For the same molecule, the GI50 [11] was > 100 µM (inactive), the GI50 [12] was 45.6 µM (inactive) and the GI50 [13] was 26.3 µM (inactive). The GI50 [19] was 33.7 µM (inactive).
`O=C1C2c3[nH]c4ccccc4c3C3CCSCC3C2C(=O)N1c1ccccc1` (stereo not given) was tested, and the GI50 [1] was > 100 µM (inactive), the GI50 [15] was > 100 µM (inactive) and the GI50 [2] was > 100 µM (inactive). For the same molecule, the GI50 [3] was > 100 µM (inactive), the GI50 [4] was > 100 µM (inactive) and the GI50 [20] was 25.8 µM (inactive). For the same molecule, the GI50 [5] was > 100 µM (inactive), the GI50 [6] was > 100 µM (inactive) and the GI50 [16] was > 100 µM (inactive). The GI50 [7] was > 100 µM (inactive), the GI50 [8] was > 100 µM (inactive) and the GI50 [17] was > 100 µM (inactive). The GI50 [9] was > 100 µM (inactive), the GI50 [10] was > 100 µM (inactive) and the GI50 [11] was > 100 µM (inactive). For the same molecule, the GI50 [12] was > 100 µM (inactive), the GI50 [13] was > 100 µM (inactive) and the GI50 [14] was > 100 µM (inactive). The GI50 [19] was > 100 µM (inactive).
For `O=C(c1ccccc1)c1cc(Cl)ccc1NCn1nnc2ccccc21`, the GI50 [1] was 47.8 µM (inactive), the GI50 [15] was > 100 µM (inactive) and the GI50 [2] was 46 µM (inactive). The GI50 [3] was 93.3 µM (inactive), the GI50 [4] was 85.3 µM (inactive) and the GI50 [20] was 30.3 µM (inactive). The GI50 [6] was > 100 µM (inactive), the GI50 [16] was 76.4 µM (inactive) and the GI50 [7] was 81.1 µM (inactive). For the same molecule, the GI50 [8] was 55.2 µM (inactive), the GI50 [17] was 73.3 µM (inactive) and the GI50 [10] was 64.6 µM (inactive). For the same molecule, the GI50 [12] was 35.8 µM (inactive), the GI50 [13] was 25.2 µM (inactive) and the GI50 [14] was 69.5 µM (inactive).
With `N#Cc1c(-c2ccccc2)c(CN2CCCCC2)c(=O)n2c1[nH]c1ccccc12` the GI50 [1] was 71 µM (inactive), the GI50 [2] was 26.7 µM (inactive) and the GI50 [3] was 20.4 µM (inactive). The GI50 [4] was 36.8 µM (inactive), the GI50 [20] was 32.5 µM (inactive) and the GI50 [5] was 5.05 µM (inactive). For the same molecule, the GI50 [6] was 25.9 µM (inactive), the GI50 [16] was 25.1 µM (inactive) and the GI50 [7] was 28.4 µM (inactive). The GI50 [8] was 27.1 µM (inactive), the GI50 [17] was 20.7 µM (inactive) and the GI50 [9] was 69.5 µM (inactive). The GI50 [10] was 25.6 µM (inactive), the GI50 [18] was 13.2 µM (inactive) and the GI50 [11] was 34.9 µM (inactive). For the same molecule, the GI50 [12] was 26.7 µM (inactive), the GI50 [14] was 25.9 µM (inactive) and the GI50 [19] was 26.3 µM (inactive).
With `Cc1c(Cc2ccccc2)n(COCCCO)c(=O)[nH]c1=O` the GI50 [1] was > 100 µM (inactive), the GI50 [15] was > 100 µM (inactive) and the GI50 [2] was > 100 µM (inactive). For the same molecule, the GI50 [3] was > 100 µM (inactive), the GI50 [4] was > 100 µM (inactive) and the GI50 [20] was > 100 µM (inactive). The GI50 [5] was > 100 µM (inactive), the GI50 [6] was > 100 µM (inactive) and the GI50 [16] was > 100 µM (inactive). The GI50 [7] was > 100 µM (inactive), the GI50 [8] was > 100 µM (inactive) and the GI50 [17] was > 100 µM (inactive). For the same molecule, the GI50 [9] was > 100 µM (inactive), the GI50 [10] was > 100 µM (inactive) and the GI50 [18] was > 100 µM (inactive). For the same molecule, the GI50 [11] was > 100 µM (inactive), the GI50 [12] was > 100 µM (inactive) and the GI50 [14] was > 100 µM (inactive). For the same molecule, the GI50 [19] was > 100 µM (inactive).
In the case of `CC(C)NC(=O)OCc1nnn2c1CCC2`, the GI50 [1] was > 100 µM (inactive), the GI50 [15] was > 100 µM (inactive) and the GI50 [2] was > 100 µM (inactive). For the same molecule, the GI50 [3] was > 100 µM (inactive), the GI50 [4] was > 100 µM (inactive) and the GI50 [20] was > 100 µM (inactive). The GI50 [5] was > 100 µM (inactive), the GI50 [16] was > 100 µM (inactive) and the GI50 [7] was > 100 µM (inactive). For the same molecule, the GI50 [8] was > 100 µM (inactive), the GI50 [17] was > 100 µM (inactive) and the GI50 [9] was > 100 µM (inactive). The GI50 [11] was > 100 µM (inactive), the GI50 [12] was > 100 µM (inactive) and the GI50 [13] was > 100 µM (inactive). The GI50 [14] was > 100 µM (inactive).
